{
  "source": "patent US20020054941A1",
  "about": "“Methods and compositions to enhance tenderness and value of meat” (The Board of Regents of the University of Nebraska, priority 2000, published 2002)",
  "key": {"Triceps brachii (TBR)": {"tested_on": "Triceps brachii (TBR)", "assay": "Warner-Bratzler shear force of muscle pumped pre-rigor with sodium citrate", "set-up": "species or system steers; unit not given here", "experimental": "(§1) Thoracic limbs from 14 steers were chilled on the carcass (controls) or removed within 2 hours post-mortem and pumped to 10% of muscle weight with water, 200 mM or 400 mM sodium citrate solutions. The injections were performed at various sites along the muscle. The control remained on the carcass. Muscle pH and temperature were measured immediately prior to pumping. Experimental and control muscles were chilled at 2° C. for 24 hours. Steaks (2.54 cm thick) were removed after 24 hours from the Infraspinatus, Supraspinatus and Triceps brachii muscles and were either frozen immediately or aged for another 6 days and then evaluated. A consumer panel evaluated palatability juiciness, tenderness, connective tissue amount, and flavor desirability) on Infraspinatus and Triceps brachii steaks using 9-point hedonic scales (1 being very undesirable and 9 being very desirable) for each trait. Warner-Bratzler shear force values were determined on 1.27 cm-diameter cores from steaks that were broiled to an internal temperature of 70° C."}, "Infraspinatus (ISP)": {"tested_on": "Infraspinatus (ISP)", "assay": "Warner-Bratzler shear force of muscle pumped pre-rigor with sodium citrate", "set-up": "species or system steers; unit not given here", "experimental": "as §1"}, "Supraspinatus (SSP)": {"tested_on": "Supraspinatus (SSP)", "assay": "Warner-Bratzler shear force of muscle pumped pre-rigor with sodium citrate", "set-up": "species or system steers; unit not given here", "experimental": "as §1"}, "[1]": {"tested_on": "semimembranosus beef muscles", "assay": "Glycogen content, pre-rigor injection of whole muscle", "experimental": "(§2) Experiment were conducted to test the effects of pre-rigor injection of several compounds. Effects of these compounds on pH, color, tenderness and other related traits of low-value beef cuts were investigated. Ten steers (22 to 24 mo of age, 515 to 676 kg live weight) were slaughtered according to current industry procedures. Pre-rigor semimembranosus (from the round), triceps brachii and supraspinatus muscles (from the chuck) were excised, after evisceration (approximately 1 hour post-mortem), from both sides of the carcass. Muscle sections were randomly assigned to the treatments: sodium citrate (NaC; 200 mM), sodium fluoride (NaF; 200 mM), sodium acetate (NaA; 200 mM), and calcium chloride (CaCl2; 300 mM). The control samples remained on the carcass at 2° C. for 24 hours to simulate commercial conditions. Following a cooling, control muscles were removed from each carcass (4 replicates), vacuum packaged and transferred to the holding cooler with the other cuts at 2° C. Calcium chloride treatment was included to be compared with the other treatments.\n(§3) At 2 hours post-mortem, each muscle was injected with a volume equal to 8% of the muscle weight using a four-needle hand injector. The temperature of solutions were 4° C. Each muscle was individually treated (2% of solution was added to give a total of 10% of muscle weight) and tumbled in a 75-pound capacity tumbler (Röschermatic, Oshabrück, Germany) for 30 min to insure uniform distribution of the solution.\n(§4) Samples of each muscle (approximately 100 g) were taken at 0 hour (before injection), 24, and 72 hours after injection for determination of pH, oxidation-reduction potential, glycogen content, R-values, NAD, and NADH. The samples were then immediately frozen in liquid nitrogen and stored at −80° C. until they were powdered and analyzed. Fresh muscle samples (approximately 20 g) were taken at 72 hours after injection and assayed immediately for water holding capacity and sarcomere length.\n(§5) Glycogen extraction was performed in duplicate with 3 g of frozen-powdered muscle sample, which was homogenized with 0.6 N perchloric acid. Amylo-α-1,4-α-1,6- glucosidase from Aspergillus niger (No. A3514. Sigma Chemical, St. Louis, Mo.) was used for the breakdown of the glycogen molecules to free glucose following the method described by Roehrig and Allred (1974). Homogenate was incubated for 2 hours at 37° C., then 100 μL of 3 N perchloric acid was added to precipitate the proteins. After centrifugation, the supernatant was stored at 0-4° C., until analyzed, which was within 2 weeks.\n(§6) The assay for glucose was run as described by Dalrymple and Hamm (1973) and Roehrig and Allred (1974), using glucose-6-phosphate dehydrogenase (No. G8878. Sigma Chemical, St. Louis, Mo.) and hexokinase (No. H5500. Sigma Chemical, St. Louis, Mo.). Briefly, the method involves an exoglucosidase, Amylogucosidase, from Aspergillus niger which hydrolyses the -α-D-(1-4) and -α-D-(1-6)-linkages of glycogen. The glucose formed is specifically determined with hexokinase and glucose-6-phosphate dehydrogenase. The glucose liberated after hydrolysis of glycogen is proportional to the increase of absorbance measured at 340 nm. Fifty μL of sample was incubated with 1 mL ATP, NADP, Glucose-6-phosphate dehydrogenase buffer and 5 μL hexokinase at 37° C. for 15 min. Absorbance was measured at 340 nm wavelength, light path=1 cm. The muscle glycogen content was calculated with the following formula: Glycogen (μmol glucose/g wet muscle weight)=111.882×absorbance. 111.882 is the dilution factor."}, "[2]": {"tested_on": "supraspinatus beef muscles", "assay": "Glycogen content, pre-rigor injection of whole muscle", "experimental": "as §2, §3, §4, §5, §6"}, "[3]": {"tested_on": "triceps brachii beef muscles", "assay": "Glycogen content, pre-rigor injection of whole muscle", "settings": "200 mM, calcium chloride 300 mM", "experimental": "as §2, §3, §4, §5, §6"}, "[4]": {"tested_on": "semimembranosus beef muscles", "assay": "Warner-Bratzler shear force, pre-rigor injection of whole muscle", "settings": "200 mM, calcium chloride 300 mM", "experimental": "as §2, §3\n(§7) Tenderness of samples was evaluated by measuring Warner-Bratzler shear force. Steaks (2.54-cm thick) from the middle of each muscle were cut and frozen at 3, 7 and 14 days postmortem. Frozen steaks (2.54 cm thick) were thawed at 4° C. for 24 hours and cooked on Farberware Open Hearth Broilers (Model 350A Walter Kidde, Bronx, N.Y.) to an internal temperature of 40° C., turned, and cooked to a final internal temperature of 70° C. (AMSA, 1995). Temperature was monitored using an OMEGA thermocouple thermometer type T (Omega Engineering, Inc., Stamford, Conn.) inserted into the geometric center of a steak. The cooked steaks were chilled 2 hours at 2° C., and then 8 cores (1.27-cm diameter) were removed parallel to the muscle fiber orientation. Cores were sheared once each on an Instron Universal Testing Machine model 55R1123 (Instron, Canton, Mass.) with a Warner-Braztler attachment. The Instron was set up with a 500 kg load cell, full scale load=1 (0-10 kg), and crosshead speed=250 mm/mim."}, "[5]": {"tested_on": "supraspinatus beef muscles", "assay": "Warner-Bratzler shear force, pre-rigor injection of whole muscle", "settings": "200 mM", "experimental": "as §2, §3, §7"}, "[6]": {"tested_on": "triceps brachii beef muscles", "assay": "Warner-Bratzler shear force, pre-rigor injection of whole muscle", "settings": "200 mM, calcium chloride 300 mM; for Shear force, 3 d: 3 d postmortem; for Shear force, 7 d: 7 d postmortem", "experimental": "as §2, §3, §7"}, "[7]": {"settings": "24 h, 200 mM, calcium chloride 300 mM"}, "[8]": {"settings": "72 h, 200 mM, calcium chloride 300 mM"}},
  "note": "Entries after “also recorded” stand apart in the source; their conditions may differ. Marks after values point to notes of the source that are not given here.",
  "data": [
    {"molecule": "O=C([O-])CC(O)(CC(=O)[O-])C(=O)[O-].[Na+].[Na+].[Na+]", "note": "[Sodium citrate, sodium citrate]", "values": [
      {"measurement": "WBSF", "setting": "Triceps brachii (TBR); 200 mM, d1", "value": "3.85^a"},
      {"measurement": "WBSF", "setting": "Triceps brachii (TBR); 200 mM, d7", "value": "3.57^b"},
      {"measurement": "WBSF", "setting": "Triceps brachii (TBR); 400 mM, d1", "value": "3.55^a"},
      {"measurement": "WBSF", "setting": "Triceps brachii (TBR); 400 mM, d7", "value": "3.09^a"},
      {"measurement": "WBSF", "setting": "Infraspinatus (ISP); 200 mM, d1", "value": "3.57^b"},
      {"measurement": "WBSF", "setting": "Infraspinatus (ISP); 200 mM, d7", "value": "3.12^b"},
      {"measurement": "WBSF", "setting": "Infraspinatus (ISP); 400 mM, d1", "value": "3.32^a"},
      {"measurement": "WBSF", "setting": "Infraspinatus (ISP); 400 mM, d7", "value": "2.79^a"},
      {"measurement": "WBSF", "setting": "Supraspinatus (SSP); 200 mM, d1", "value": "4.09^a"},
      {"measurement": "WBSF", "setting": "Supraspinatus (SSP); 200 mM, d7", "value": "3.83^a"},
      {"measurement": "WBSF", "setting": "Supraspinatus (SSP); 400 mM, d1", "value": "3.91^a"},
      {"measurement": "WBSF", "setting": "Supraspinatus (SSP); 400 mM, d7", "value": "4.03^a"},
      {"measurement": "Glycogen, 0 h", "setting": "[1]; 0 h (before injection)", "value": 65.12, "unit": "μmol/g muscle"},
      {"measurement": "Glycogen, 24 h", "setting": "[1]; [7]", "value": "52.83^a μmol/g muscle"},
      {"measurement": "Glycogen, 72 h", "setting": "[1]; [8]", "value": "45.65^a μmol/g muscle"},
      {"measurement": "Glycogen, 0 h", "setting": "[2]; 0 h (before injection)", "value": 45.18, "unit": "μmol/g muscle"},
      {"measurement": "Glycogen, 24 h", "setting": "[2]; [7]", "value": 30.43, "unit": "μmol/g muscle"},
      {"measurement": "Glycogen, 72 h", "setting": "[2]; [8]", "value": "22.65^ab μmol/g muscle"},
      {"measurement": "Glycogen, 0 h", "setting": "[3]; 0 h (before injection)", "value": 38.74, "unit": "μmol/g muscle"},
      {"measurement": "Glycogen, 24 h", "setting": "[3]; 24 h", "value": "32.93^b μmol/g muscle"},
      {"measurement": "Glycogen, 72 h", "setting": "[3]; 72 h", "value": "27.58^b μmol/g muscle"},
      {"measurement": "Shear force, 3 d", "setting": "[4]; 3 d postmortem", "value": 5.14, "unit": "kg"},
      {"measurement": "Shear force, 7 d", "setting": "[4]; 7 d postmortem", "value": 4.41, "unit": "kg"},
      {"measurement": "Shear force, 14 d", "setting": "[4]; 14 d postmortem", "value": 3.96, "unit": "kg"},
      {"measurement": "Shear force, 3 d", "setting": "[5]; 3 d postmortem, calcium chloride 300 mM", "value": "5.06^c kg"},
      {"measurement": "Shear force, 7 d", "setting": "[5]; 7 d postmortem, calcium chloride 300 mM", "value": "4.89^b kg"},
      {"measurement": "reduced shear force compared with controls", "setting": "[5]; supraspinatus, 3 days post-mortem, CaCl2 300 mM", "value": 2.22, "unit": "kg"},
      {"measurement": "Shear force, 3 d", "setting": "[6]", "value": "4.54^c kg"},
      {"measurement": "Shear force, 3 d", "setting": "[6]; listed as NaC", "value": "most tender meat; also recorded: more tender"},
      {"measurement": "Shear force, 7 d", "setting": "[6]", "value": "4.20^c kg"},
      {"measurement": "Shear force, 7 d", "setting": "[6]; listed as NaC", "value": "lower shear force values than CaCl2"},
      {"measurement": "Shear force, 14 d", "setting": "[6]; 14 d postmortem", "value": 3.69, "unit": "kg"}
    ]}
  ]
}
